{"source": "patent US12239413B2", "about": "“2D material detector for activity monitoring of single living micro-organisms and nano-organisms” (SOUNDCELL HOLDING B.V., priority 2019, dated 2025)", "key": {"E. coli bacteria [1]": {"test_system": "E. coli bacteria", "test": "Motion of suspended single layer CVD graphene with E. coli droplet, antibiotic susceptibility", "type": "cell-based", "settings": "single layer chemical vapour deposited graphene, Lysogeny broth droplet", "experimental": "In the embodiment of FIG. 2 a red helium-neon laser 114 is directed through optical components 115 on the 2D material layer 102 which is placed in a controlled humidity chamber 116. The intensity of the reflected light from the chip 109 is altered by the motion of the micro-organism 105 in the liquid droplet 111 that in turn moves the suspended 2D material 102. This intensity is then measured by a photodiode 117 connected to an oscilloscope 118. In one example a liquid droplet 111 containing micro-organism E. coli bacteria 105 and nutrition Lysogeny broth solution 112 has been dispensed on the sample receiver 101 comprising an array of single layer chemical vapour deposited graphene as the inert suspended layer 102. The motion is read out using the measurement system described in FIG. 2. The motion of the suspended layer is traced in a timeframe of a few seconds in the presence and absence of chemicals 113 and micro-organisms 105."}, "E. coli bacteria [2]": {"test_system": "E. coli bacteria", "test": "Motion of suspended silanized exfoliated 10 nm few layer graphene with adhered E. coli, antibiotic susceptibility", "type": "cell-based", "experimental": "In the embodiment of FIG. 2 a red helium-neon laser 114 is directed through optical components 115 on the 2D material layer 102 which is placed in a controlled humidity chamber 116. The intensity of the reflected light from the chip 109 is altered by the motion of the micro-organism 105 in the liquid droplet 111 that in turn moves the suspended 2D material 102. This intensity is then measured by a photodiode 117 connected to an oscilloscope 118. In another example a liquid droplet 111 containing micro-organism E. coli bacteria 105 and nutrition Lysogeny broth solution 112 has been dispensed on the sample receiver 101 comprising an array of silanized natural crystal exfoliated 10 nm few layer thick graphene as the suspended material 102. FIGS. 4a, 4b and 4c show the time traces of the suspended layer in a timeframe of twelve minutes."}}, "data": [{"smiles": "O=C(N[C@H](CO)[C@H](O)c1ccc([N+](=O)[O-])cc1)C(Cl)Cl", "note": "[Chloramphenicol]", "values": [{"measurement": "change of variance of the time traces after adding antibiotic", "setting": "E. coli bacteria [1]; FIG. 3d", "value": "drops about three times"}, {"measurement": "fluctuations of the motion time trace (bacterial metabolic activity) after addition of antibiotic", "setting": "E. coli bacteria [1]; timeframe of a few seconds, FIG. 3c", "value": "No fluctuations are observed"}, {"measurement": "change in average amplitude of the amplitude spectrum of the time traces after adding antibiotic", "setting": "E. coli bacteria [2]; FIGS. 5a-b (FIG. 4a vs FIG. 4c)", "value": "tenfold decrease"}, {"measurement": "fluctuations of the motion time trace (bacterial metabolic activity) after addition of antibiotic", "setting": "E. coli bacteria [2]; adhered bacteria, timeframe of twelve minutes, FIGS. 4b, 4c", "value": "No fluctuations are observed"}, {"measurement": "change of variance of the time traces after adding antibiotic", "setting": "E. coli bacteria [2]; timeframe of twelve minutes, FIG. 4d", "value": "drops about hundred times"}]}]}
